Tested on: PBMC from healthy, seropositive donors
Assay type: cell-based, human

Sequence: LLLRQAIAEYRMRLANLDAF [BPSS0530_P25]
- % Responders: 81.4%
- Median SFC/10^6 PBMCs (IFN-g): 244

Sequence: LLVVEPGATLDTDGERATLD [BPSS1599_P31]
- % Responders: 83.3%
- Median SFC/10^6 PBMCs (IFN-g): 151

Sequence: LQTSFEPLAMMLRQALARVI [BPSS0530_P31]
- % Responders: 97.7%
- Median SFC/10^6 PBMCs (IFN-g): 240

Sequence: LRIVGDFPDLRFEAWGLRDGKVA [BPSS0530_P44]
- % Responders: 90.7%
- Median SFC/10^6 PBMCs (IFN-g): 225

Sequence: LRVERIAYQNNQWTLEGVLY [BPSS1599_P42]
- % Responders: 91.7%
- Median SFC/10^6 PBMCs (IFN-g): 139

Sequence: LSPRAALIAATAACVVLGGA [BPSS1599_P20]
- % Responders: 97.9%
- Median SFC/10^6 PBMCs (IFN-g): 150

Sequence: MLRQALARVIETPVLPLRFE [BPSS0530_P32]
- % Responders: 95.3%
- Median SFC/10^6 PBMCs (IFN-g): 316

Sequence: MSAAAQDRSIGAAQMTAAIA [BPSS1531_P20]
- % Responders: 91.4%
- Median SFC/10^6 PBMCs (IFN-g): 225

Sequence: MSAQVIQIGRQRFVGGLFWQ [BPSS1599_P1]
- % Responders: 81.3%
- Median SFC/10^6 PBMCs (IFN-g): 189

Sequence: MSSLPVGPVAWSDGMLIETQ [BPSS0530_P1]
- % Responders: 93.0%
- Median SFC/10^6 PBMCs (IFN-g): 258

Sequence: NANLGGIAPPEFVRAIDVPG [BPSS1599_P40]
- % Responders: 89.6%
- Median SFC/10^6 PBMCs (IFN-g): 137

Sequence: NASRTVSLDPRFIPPLLDTR [BPSS0530_P19]
- % Responders: 97.7%
- Median SFC/10^6 PBMCs (IFN-g): 334

Sequence: NLAQQAAALPASPTWRAYRL [BPSS1599_P38]
- % Responders: 89.6%
- Median SFC/10^6 PBMCs (IFN-g): 125

Sequence: NNHEENGQSAFETVTEASFP [BPSL2096_P3]
- % Responders: 91.2%
- Median SFC/10^6 PBMCs (IFN-g): 308

Sequence: NQWTLEGVLYAK [BPSS1599_P43]
- % Responders: 81.3%
- Median SFC/10^6 PBMCs (IFN-g): 120

Sequence: NRRVEIYLRAPQAAQ [BPSL0999_P21]
- % Responders: 93.6%
- Median SFC/10^6 PBMCs (IFN-g): 348

Sequence: NSYTSQIAQLNEQIASASSQ [BPSL0280_P18]
- % Responders: 93.1%
- Median SFC/10^6 PBMCs (IFN-g): 523

Sequence: NVPSSVTFATDQYAITPAFT [BPSL0999_P11]
- % Responders: 95.7%
- Median SFC/10^6 PBMCs (IFN-g): 399

Sequence: PATANAKCDGALVAQAPAPA [BPSL2522_P7]
- % Responders: 82.9%
- Median SFC/10^6 PBMCs (IFN-g): 265

Sequence: PEQGPRAPLANLAQQAAALP [BPSS1599_P37]
- % Responders: 93.8%
- Median SFC/10^6 PBMCs (IFN-g): 147

Sequence: PLLNDLATTLNQNPQITASV [BPSL0999_P13]
- % Responders: 91.5%
- Median SFC/10^6 PBMCs (IFN-g): 357

Sequence: PVAPVAPAITSQKITYQADT [BPSL2522_P9]
- % Responders: 88.6%
- Median SFC/10^6 PBMCs (IFN-g): 353

Sequence: QGMGASNPIADNATEAGRAQ [BPSL0999_P19]
- % Responders: 97.9%
- Median SFC/10^6 PBMCs (IFN-g): 375

Sequence: QIPYYAQSTYFEVESTDPFW [BPSS0530_P41]
- % Responders: 81.4%
- Median SFC/10^6 PBMCs (IFN-g): 292

Sequence: QPAPNWLGAFALPDGRWAYF [BPSS1599_P10]
- % Responders: 95.8%
- Median SFC/10^6 PBMCs (IFN-g): 189

Sequence: QPKRLDDLLPRRGGRPRTER [BPSS1599_P17]
- % Responders: 83.3%
- Median SFC/10^6 PBMCs (IFN-g): 141

Sequence: QRFVGGLFWQSLSRRNELRA [BPSS1599_P2]
- % Responders: 81.3%
- Median SFC/10^6 PBMCs (IFN-g): 137

Sequence: RDGFAPGHLSLGAMVSRAIA [BPSS1599_P7]
- % Responders: 95.8%
- Median SFC/10^6 PBMCs (IFN-g): 132

Sequence: RDKEAGVALRATFIVDPDNT [BPSL2096_P13]
- % Responders: 94.1%
- Median SFC/10^6 PBMCs (IFN-g): 315

Sequence: RDLAVSKLSQLAGVQVVQSN [BPSL0280_P21]
- % Responders: 93.1%
- Median SFC/10^6 PBMCs (IFN-g): 493

Sequence: REPKKQDICYATQNRQDAVK [BPSL0919_P21]
- % Responders: 94.6%
- Median SFC/10^6 PBMCs (IFN-g): 422

Sequence: RFIPPLLDTRAHLVLRSLID [BPSS0530_P20]
- % Responders: 90.7%
- Median SFC/10^6 PBMCs (IFN-g): 248

Sequence: RLGLRHARGVFQDGTAFSLP [BPSS0530_P7]
- % Responders: 90.7%
- Median SFC/10^6 PBMCs (IFN-g): 211
